The structures appear in SMILES notation. A value given as a limit tells only on which side of the number the result lay.

This assay has as its target T1, human recombinant OX2 (hOX2) receptor (Homo sapiens, UniProt O43614).
T1 construct: host or cells: CHO cells
T1 sequence (O43614 1-444): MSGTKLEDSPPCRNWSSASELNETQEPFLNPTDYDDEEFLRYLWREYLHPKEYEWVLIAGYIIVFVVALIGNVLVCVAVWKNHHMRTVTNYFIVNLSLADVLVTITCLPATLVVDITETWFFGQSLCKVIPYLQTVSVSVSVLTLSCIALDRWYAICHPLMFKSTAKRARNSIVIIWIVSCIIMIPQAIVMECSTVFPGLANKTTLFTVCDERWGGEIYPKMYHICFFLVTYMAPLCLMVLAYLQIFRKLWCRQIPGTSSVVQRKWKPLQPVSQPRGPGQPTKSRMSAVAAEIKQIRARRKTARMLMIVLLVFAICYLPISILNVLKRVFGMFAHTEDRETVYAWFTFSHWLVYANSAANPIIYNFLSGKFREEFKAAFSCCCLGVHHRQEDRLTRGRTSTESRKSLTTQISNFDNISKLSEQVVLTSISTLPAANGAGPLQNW
The assay can be described thus: IP-1 accumulation assay (IP-One HTRF) in hOX2-CHO cells. To be noted: 60 min at 37° C., mean of at least two independent experiments, read-out: EC50_OX2R Category. The class given is cell-based. How it is done:
Example 94: IP-1 Accumulation Assay
The accumulation of Inositol-1 Monophosphate (IP-1) was measured using IP-One HTRF® Terbium cryptate based assay (Cisbio) in human recombinant OX1 (hOX1) and at OX2 (hOX2) receptors expressed in CHO cells (DiscoverX) according to the manufacturer's instructions for cells tested in suspension.
hOX1-CHO and hOX2-CHO cells were seeded into white 384-well plates at a density of 20,000 cells/well in Hank's Balanced Salt Solution (HBSS) containing 20 mM HEPES pH 7.4, 50 mM, LiCl and 0.1% and Bovine Serum Albumin (BSA).
Compounds of the present disclosure were tested in a 11 points concentration response curve (CRC) serially diluted in neat DMSO at 200 fold concentrations and added by Echo acoustic liquid handling (Labcyte) to the cells (0.5% DMSO final in the assay). After 60 min of incubation at 37° C. detection reagents, IP1-d2 tracer and anti-IP1-cryptate were diluted in lysis buffer according to the manufacturer's descriptions and added to the cells.
Following 60 mi incubation at room temperature, time-resolved fluorescence (HTRF) was measured at 615 nm and 665 nm by Envision Multilabel reader (Perkin Elmer) and the HTRF ratio (A665/A615×10^4) was calculated.
The IP-1 accumulation response was expressed as percentage of the maximal OX-A response.
Curve fitting and EC50 estimations were carried out using a four-parameter logistic model using XLfit Software. Mean data of EC50 are calculated from at least two independent experiments performed in duplicates.
`O=C1COCC2(CCCN(C(=O)[C@H]3C[C@@H](F)C3)C2COC2CCN(c3ncc(F)cn3)CC2)N1` (mixture of isomers) [Example 78, rel-(6S,7R)-8-(3-fluorocyclobutanecarbonyl)-7-({[1-(5-fluoropyrimidin-2-yl)piperidin-4-yl]oxy}methyl)-4-oxa-1,8-diazaspiro[5.5]undecan-2-one]: the EC50 fell in the range of 0.1 to 1 µM. With `CCNC(=O)N1CCCC2(COC(F)C(=O)N2)C1CO[C@H]1CC[C@@H](c2ccccc2)CC1` (relative stereo) [Example 41, rel-(6S,7R)-N-ethyl-3-fluoro-2-oxo-7-({[(CIS)-4-phenylcyclohexyl]oxy}methyl)-4-oxa-1,8-diazaspiro[5.5] undecane-8-carboxamide] the figure was less than 0.1 µM. Under `CCNC(=O)N1CCC[C@@]2(COCCC(=O)N2)[C@@H]1CO[C@H]1CC[C@@H](c2ccccc2)CC1` (relative stereo) [Example 55, rel-(1R,6S)-N-ethyl-8-oxo-1-({[(CIS)-4-phenylcyclohexyl]oxy}methyl)-11-oxa-2,7-diazaspiro[5.6]dodecane-2-carboxamide] stands less than 0.1 µM. Under `O=C1N[C@]2(CCO1)[C@H](Cc1cccc(-c3cc(F)cc(F)c3)c1F)N(C(=O)[C@H]1C[C@@H](F)C1)CC2(F)F` (relative stereo) [Example 79, rel-(1S,5R)-4,4-difluoro-2-[(CIS)-3-fluorocyclobutanecarbonyl]-1-({2,3′,5′-trifluoro-[1,1′-biphenyl]-3-yl}methyl)-8-oxa-2,6-diazaspiro[4.5]decan-7-one] stands 0.1 to 1 µM.

Consider `CCNC(=O)N1CCC[C@]2(COCC(=O)N2)[C@H]1CO[C@H]1CC[C@@H](c2ccccc2)CC1` (single isomer, unassigned) [Example 2], for which the EC50 is 1 to 10 µM.

Regarding `CCNC(=O)N1CCC[C@@]2(COCC(=O)N2)[C@@H]1CO[C@H]1CC[C@@H](c2ccccc2)CC1` (single isomer, unassigned) [Example 3], the EC50 is less than 0.1 µM.

Turning to `COC(=O)N1CCC[C@]2(COCC(=O)N2)[C@H]1CO[C@H]1CC[C@@H](c2ccccc2)CC1` (single isomer, unassigned) [Example 5], the EC50 is more than 10 µM. For `COC(=O)N1CCC[C@@]2(COCC(=O)N2)[C@@H]1CO[C@H]1CC[C@@H](c2ccccc2)CC1` (single isomer, unassigned) [Example 6], the EC50 lay within 0.1 to 1 µM.

As to `O=C1COC[C@]2(CCCN(C(=O)C3CC3)[C@@H]2CO[C@H]2CC[C@@H](c3ccccc3)CC2)N1` (single isomer, unassigned) [Example 8], the EC50 is more than 10 µM.

On to `O=C1COC[C@@]2(CCCN(C(=O)C3CC3)[C@H]2CO[C@H]2CC[C@@H](c3ccccc3)CC2)N1` (single isomer, unassigned) [Example 9], for which the EC50 lay in the range of 0.1 to 1 µM. `CCNC(=O)N1CCC[C@]2(CCOC(=O)N2)[C@H]1CO[C@H]1CC[C@@H](c2ccccc2)CC1` (single isomer, unassigned) [Example 13]: the EC50 is more than 10 µM.

Regarding `CCNC(=O)N1CCC[C@@]2(CCOC(=O)N2)[C@@H]1CO[C@H]1CC[C@@H](c2ccccc2)CC1` (single isomer, unassigned) [Example 14], the EC50 is less than 0.1 µM. With `CCNC(=O)N1CC[C@@]2(COCC(=O)N2)[C@@H]1CO[C@H]1CC[C@@H](c2ccccc2)CC1` (single isomer, unassigned) [Example 16] the figure was 0.1 to 1 µM; with `CCNC(=O)N1CC[C@]2(COCC(=O)N2)[C@H]1CO[C@H]1CC[C@@H](c2ccccc2)CC1` (single isomer, unassigned) [Example 17], more than 10 µM. Under `COC(=O)N1CCC[C@]2(CCOC(=O)N2)[C@H]1Cc1cccc(-c2ccccc2)c1` (single isomer, unassigned) [Example 20] stands more than 10 µM; under `COC(=O)N1CCC[C@@]2(CCOC(=O)N2)[C@@H]1Cc1cccc(-c2ccccc2)c1` (single isomer, unassigned) [Example 21], more than 10 µM. With `COC(=O)N1CCC[C@]2(CCOC(=O)N2)[C@@H]1Cc1cccc(-c2ccccc2)c1` (single isomer, unassigned) [Example 22], the EC50 was more than 10 µM. Under `COC(=O)N1CCC[C@@]2(CCOC(=O)N2)[C@H]1Cc1cccc(-c2ccccc2)c1` (single isomer, unassigned) [Example 23] stands more than 10 µM; under `CCNC(=O)N1CCC[C@@]2(CNS(=O)(=O)N2)[C@@H]1Cc1cccc(-c2ccccc2)c1` (single isomer, unassigned) [Example 31], more than 10 µM. With `CCNC(=O)N1CCC[C@]2(CNS(=O)(=O)N2)[C@H]1Cc1cccc(-c2ccccc2)c1` (single isomer, unassigned) [Example 32] the figure was more than 10 µM. Under `CCNC(=O)N1CCC[C@]2(CCCC(=O)N2)[C@H]1CO[C@H]1CC[C@@H](c2ccccc2)CC1` (single isomer, unassigned) [Example 34] stands more than 10 µM.

`CCNC(=O)N1CCC[C@@]2(CCCC(=O)N2)[C@@H]1CO[C@H]1CC[C@@H](c2ccccc2)CC1` (single isomer, unassigned) [Example 35]: the EC50 is less than 0.1 µM. With `CCNC(=O)N1CCC[C@]2(COC(C)C(=O)N2)[C@H]1CO[C@H]1CC[C@@H](c2ccccc2)CC1` (single isomer, unassigned) [Example 39] the figure was more than 10 µM; with `CCNC(=O)N1CCC[C@@]2(COC(C)C(=O)N2)[C@@H]1CO[C@H]1CC[C@@H](c2ccccc2)CC1` (single isomer, unassigned) [Example 40], less than 0.1 µM.

For `CCNC(=O)N1CCC[C@]2(COC(F)C(=O)N2)[C@H]1CO[C@H]1CC[C@@H](c2ccccc2)CC1` (single isomer, unassigned) [Example 42], the EC50 is 1 to 10 µM. Turning to `CCNC(=O)N1CCC[C@@]2(COC(F)C(=O)N2)[C@@H]1CO[C@H]1CC[C@@H](c2ccccc2)CC1` (single isomer, unassigned) [Example 43], the EC50 was less than 0.1 µM. Under `CCNC(=O)N1CCC(F)(F)[C@@]2(CCOC(=O)N2)[C@@H]1CO[C@H]1CC[C@@H](c2ccccc2)CC1` (single isomer, unassigned) [Example 45] stands less than 0.1 µM; under `CCNC(=O)N1CCC(F)(F)[C@]2(CCOC(=O)N2)[C@H]1CO[C@H]1CC[C@@H](c2ccccc2)CC1` (single isomer, unassigned) [Example 46], more than 10 µM. `O=C1N[C@]2(CCCN(C(=O)[C@H]3C[C@@H](F)C3)[C@H]2CO[C@H]2CC[C@@H](c3ccccc3)CC2)CCO1` (single isomer, unassigned) [Example 66]: the EC50 was less than 0.1 µM. In the case of `O=C1N[C@@]2(CCCN(C(=O)[C@H]3C[C@@H](F)C3)[C@@H]2CO[C@H]2CC[C@@H](c3ccccc3)CC2)CCO1` (single isomer, unassigned) [Example 67], the EC50 is more than 10 µM.

For `O=C1COC[C@@]2(CCN(C(=O)[C@H]3C[C@@H](F)C3)[C@H]2Cc2cccc(-c3cc(F)cc(F)c3)c2F)N1` (single isomer, unassigned) [Example 72], the EC50 was in the range of 0.1 to 1 µM. Under `O=C1COC[C@]2(CCN(C(=O)[C@H]3C[C@@H](F)C3)[C@@H]2Cc2cccc(-c3cc(F)cc(F)c3)c2F)N1` (single isomer, unassigned) [Example 73] stands more than 10 µM; under `O=C1N[C@]2(CCN(C(=O)OCC(F)F)[C@H]2Cc2cccc(-c3cc(F)cc(F)c3)c2F)COC1F` (single isomer, unassigned) [Example 74], 1 to 10 µM.

(Values after patent US20240254143A1, “OREXIN RECEPTOR AGONISTS AND USES THEREOF” (JAZZ PHARMACEUTICALS IRELAND LIMITED, priority 2021, published 2024).)
